According to EP3290412A1, “HIV-1 NUCLEOCAPSID INHIBITORS” (Università degli Studi di Siena, priority 2016, dated 2018):

How the values were obtained:
[1] = target: T1, full length (1-55) HIV-1 NCp7 (Human immunodeficiency virus type 1 group M subtype B, UniProt P12493); assay: Electromobility Shift Assay (EMSA), competition for ssDNA binding; settings: NCp7 300 nM, M13mp18 ssDNA; positive = >25% inhibition at 100µM
T1 construct: recombinant full length (1-55) HIV-1 NCp7 proteins; made in house
How it was run: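 Recombinant NL4-3 NCp7 (300 nM in the pre-mix) was combined with compound in 20 mM Tris-HCl pH 7.4, 2 mM MgCl2, 100 mM NaCl, 1 mM DTT, then M13mp18 ssDNA was added for 25 min at 37 °C. Complexes were run on 1% agarose/0.5x TBE and stained with SybrGold. IC50 is the concentration at which bound ssDNA migrated 50% of the bound–unbound distance (triplicate).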

[2] = tested on: HIV-1 reference strain NL4-3; assay: BiCycle assay (MT-2 then TZM-bl cells); type: cell-based; settings: Human immunodeficiency virus 1, NL43, TZM-bl; for IC50: read-out: BiCycle IC50 nM
How it was run: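 MT-2 cells were infected with NL4-3 in the presence of five-fold compound dilutions. After 72 h, the supernatant was passed to TZM-bl cells. Two days later, luciferase luminescence was read and IC50 calculated, giving a readout that spans the whole replication cycle.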

HeLa cells = assay: HeLa Proliferation assay (CellTiter Glo); type: cell-based; settings: 72 hours
How it was run: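 HeLa cells in phenol red-free DMEM + 10% FBS plated at 2000 cells/well, recovered 4 h, then exposed to compounds for 72 h at 37 °C, 5% CO2. Viability read by CellTiter Glo luminescence.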

[3] = tested on: Peripheral blood mononuclear cells (PBMC); type: cell-based; settings: human, 7 days
How it was run: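 Healthy-donor PBMC stimulated 2 days with 5 µg/mL PHA, then seeded at 1x10^5 cells/well in medium with 20 IU/mL IL-2 and exposed to compound for 7 days. Viability measured by MTS (4 h, OD 490 nm). TD50 interpolated from dose versus percent mortality relative to untreated cells.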

Structure (SMILES): C[C@@H](NC(=O)c1nc(-c2cccc(Cl)n2)nc(O)c1O)C1CCCCC1 [Compound 34, (R)-2-(6-chloropyridin-2-yl)-N-(1-cyclohexylethyl)-5,6-dihydroxypyrimidine-4-carboxamide]
- EMSA screening results [1]: Negative
- IC50 [2]: 665 nM
- Proliferation assay HELA TD50 (HeLa cells): 8.2296 µM
- Proliferation assay PBMC TD50 [3]: 5.88 µM

Structure (SMILES): C[C@@H](NC(=O)c1nc(-c2nccc3ccccc23)nc(O)c1O)C1CCCCC1 [Compound 31, (R)-N-(1-cyclohexylethyl)-5,6-dihydroxy-2-(isoquinolin-1-yl)pyrimidine-4-carboxamide]
- EMSA screening results [1]: Positive (A compound showing >25% inhibition when tested at 100µM concentration is considered as "positive")
- IC50 [2]: 100 nM
- EC50 ([2]; read-out: Mean EC50 (nM)): 100 nM
- Proliferation assay HELA TD50 (HeLa cells): 2.0709 µM
- Proliferation assay PBMC TD50 [3]: 5 µM
- TD50 [3]: 5 µM

Structure (SMILES): C[C@@H](NC(=O)c1nc(-c2ccc(N)cn2)nc(O)c1O)C1CCCCC1 [Compound 20, (R)-2-(5-aminopyridin-2-yl)-N-(1-cyclohexylethyl)-5,6-dihydroxypyrimidine-4-carboxamide]
- EMSA screening results [1]: Positive (A compound showing >25% inhibition when tested at 100µM concentration is considered as "positive")
- IC50 [2]: 94.5 nM
- Proliferation assay HELA TD50 (HeLa cells): 0.6864 µM
- Proliferation assay PBMC TD50 [3]: 1.65 µM

Structure (SMILES): O=C(OCCCC1CCCCC1)c1nc(-c2ccccn2)nc(O)c1O [Compound 14, 3-cyclohexylpropyl 5,6-dihydroxy-2-(pyridin-2-yl)pyrimidine-4-carboxylate]
- EMSA screening results [1]: Negative
- IC50 [2]: 6830 nM
- Proliferation assay HELA TD50 (HeLa cells): >50 µM
- Proliferation assay PBMC TD50 [3]: 5.6 µM

Structure (SMILES): CC(NC(=O)c1nc(-c2cc(Cl)ccn2)nc(O)c1O)C1CCC(F)(F)CC1 (centres unmarked) [Compound 87, 2-(4-chloropyridin-2-yl)-N-(1-(4,4-difluorocyclohexyl)ethyl)-5,6-dihydroxypyrimidine-4-carboxamide]
- EMSA screening results [1]: Negative
- IC50 [2]: 1830 nM
- Proliferation assay HELA TD50 (HeLa cells): 6.158 µM
- Proliferation assay PBMC TD50 [3]: 3.22 µM

Structure (SMILES): CC1CCCC(NC(=O)c2nc(-c3ccccn3)nc(O)c2O)C1 (centres unmarked) [Compound 57, 5,6-dihydroxy-N-(3-methylcyclohexyl)-2-(pyridin-2-yl)pyrimidine-4-carboxamide]
- EMSA screening results [1]: Positive (A compound showing >25% inhibition when tested at 100µM concentration is considered as "positive")
- IC50 [2]: 432 nM
- Proliferation assay HELA TD50 (HeLa cells): 1.9094 µM
- Proliferation assay PBMC TD50 [3]: 2.7 µM

Structure (SMILES): C[C@@H](NC(=O)c1nc(-c2cc(CCN)ccn2)nc(O)c1O)C1CCCCC1 [Compound 88, (R)-2-(4-(2-aminoethyl)pyridin-2-yl)-N-(1-cyclohexylethyl)-5,6-dihydroxypyrimidine-4-carboxamide]
- EMSA screening results [1]: Positive (A compound showing >25% inhibition when tested at 100µM concentration is considered as "positive")
- IC50 [2]: 12700 nM
- Proliferation assay HELA TD50 (HeLa cells): 7.1338 µM
- Proliferation assay PBMC TD50 [3]: 3.25 µM

Structure (SMILES): C[C@@H](NC(=O)c1nc(-c2ncccc2Cl)nc(O)c1O)C1CCCCC1 [Compound 33, (R)-2-(3-chloropyridin-2-yl)-N-(1-cyclohexylethyl)-5,6-dihydroxypyrimidine-4-carboxamide]
- EMSA screening results [1]: Positive (A compound showing >25% inhibition when tested at 100µM concentration is considered as "positive")
- IC50 [2]: 1220 nM
- Proliferation assay HELA TD50 (HeLa cells): 6.8148 µM
- Proliferation assay PBMC TD50 [3]: 3.4 µM

Structure (SMILES): O=C(OCC1CCCCC1)c1nc(-c2ccccn2)nc(O)c1O [Compound 2, cyclohexylmethyl 5,6-dihydroxy-2-(pyridin-2-yl)pyrimidine-4-carboxylate]
- EMSA screening results [1]: Negative
- IC50 [2]: 1780 nM
- Proliferation assay HELA TD50 (HeLa cells): >50 µM
- Proliferation assay PBMC TD50 [3]: 6 µM
